The IC50 is the point on the concentration scale where inhibition reaches its midpoint.

Test [1] deals with FXIIIa (Homo sapiens, UniProt P00488). The test can be described thus: biochemical.
Test [2] concerns FXIIIa. To be noted: animal models; Leidy et al. 1990; cited from earlier work.

Each structure is given as a SMILES string.

Chain of FXIIIa (Homo sapiens, UniProt P00488) (P00488 39-732 limits assumed): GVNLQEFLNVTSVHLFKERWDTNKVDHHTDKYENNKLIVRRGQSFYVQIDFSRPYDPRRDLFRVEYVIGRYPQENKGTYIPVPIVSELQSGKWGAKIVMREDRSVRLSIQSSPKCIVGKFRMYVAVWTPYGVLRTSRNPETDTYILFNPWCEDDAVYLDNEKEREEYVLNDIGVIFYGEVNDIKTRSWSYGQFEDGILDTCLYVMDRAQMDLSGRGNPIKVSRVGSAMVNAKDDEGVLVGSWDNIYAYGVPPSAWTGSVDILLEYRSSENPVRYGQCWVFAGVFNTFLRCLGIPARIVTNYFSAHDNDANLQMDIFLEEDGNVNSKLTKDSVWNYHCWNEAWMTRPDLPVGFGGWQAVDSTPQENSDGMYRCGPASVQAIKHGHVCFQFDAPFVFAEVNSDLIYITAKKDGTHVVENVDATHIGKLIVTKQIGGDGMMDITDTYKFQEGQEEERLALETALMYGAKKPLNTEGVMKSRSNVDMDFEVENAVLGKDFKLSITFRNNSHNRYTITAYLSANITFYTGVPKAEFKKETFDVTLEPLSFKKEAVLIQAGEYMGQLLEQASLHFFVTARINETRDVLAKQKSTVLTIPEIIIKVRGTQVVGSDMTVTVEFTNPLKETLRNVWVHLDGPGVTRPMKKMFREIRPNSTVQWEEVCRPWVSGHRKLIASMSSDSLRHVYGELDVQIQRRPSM

`O=C(O)CI` [iodoacetic acid]: inhibition against FXIIIa [1] was half-maximal at 147 µM (IC50).
As for `CC(=O)CSc1n[n+]2c(C)csc2s1.[O-][Cl+3]([O-])([O-])[O-]` [L722151], the “Effect on thrombolysis by a plasminogen activator” value in the test with FXIIIa [2] was “improve the thrombolysis”.

The record behind these values is patent publication US20030190692A1, “Method for measuring the activity of the blood clotting factor XIIIA” (priority 2000, published 2003).
